Reference: the Kinase Knowledgebase extract (Sharma et al. 2016)
Converted amounts (≈) assume the structure as drawn. “And” between values parts separate entries of the source, which are not always exact repeats. Identical values can stand only once.

Target: EGFR (UniProt P00533)
Sequence (P00533 whole entry, looked up): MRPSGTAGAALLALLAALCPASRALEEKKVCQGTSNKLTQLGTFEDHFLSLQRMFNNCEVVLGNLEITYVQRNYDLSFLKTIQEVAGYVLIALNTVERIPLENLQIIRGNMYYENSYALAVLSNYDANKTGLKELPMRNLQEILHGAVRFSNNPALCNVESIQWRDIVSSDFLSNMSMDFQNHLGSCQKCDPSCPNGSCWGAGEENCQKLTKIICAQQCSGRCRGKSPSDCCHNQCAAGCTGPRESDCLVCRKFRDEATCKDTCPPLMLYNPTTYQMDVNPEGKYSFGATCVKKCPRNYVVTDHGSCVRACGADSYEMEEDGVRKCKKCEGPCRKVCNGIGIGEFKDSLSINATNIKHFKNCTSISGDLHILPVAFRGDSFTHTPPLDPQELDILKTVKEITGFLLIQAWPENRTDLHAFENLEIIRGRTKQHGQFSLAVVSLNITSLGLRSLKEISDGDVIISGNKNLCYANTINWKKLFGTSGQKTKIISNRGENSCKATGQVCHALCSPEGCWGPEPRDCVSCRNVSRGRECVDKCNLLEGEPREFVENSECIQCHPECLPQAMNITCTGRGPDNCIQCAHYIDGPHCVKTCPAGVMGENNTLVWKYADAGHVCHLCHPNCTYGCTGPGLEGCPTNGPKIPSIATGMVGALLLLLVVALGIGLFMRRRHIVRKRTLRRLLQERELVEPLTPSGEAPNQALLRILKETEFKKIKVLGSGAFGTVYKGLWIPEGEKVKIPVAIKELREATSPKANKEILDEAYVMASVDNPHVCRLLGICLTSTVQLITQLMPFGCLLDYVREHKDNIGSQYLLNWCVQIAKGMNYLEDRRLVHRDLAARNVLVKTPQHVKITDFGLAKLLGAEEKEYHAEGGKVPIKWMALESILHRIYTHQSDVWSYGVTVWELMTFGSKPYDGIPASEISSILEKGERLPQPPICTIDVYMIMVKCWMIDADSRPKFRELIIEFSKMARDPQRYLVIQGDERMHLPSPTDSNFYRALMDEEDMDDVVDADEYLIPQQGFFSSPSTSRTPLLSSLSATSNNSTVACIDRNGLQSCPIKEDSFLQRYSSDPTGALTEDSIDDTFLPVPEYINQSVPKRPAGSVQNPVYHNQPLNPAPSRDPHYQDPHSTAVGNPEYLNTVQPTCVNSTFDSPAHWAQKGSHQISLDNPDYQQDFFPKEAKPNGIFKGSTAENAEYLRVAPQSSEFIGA

IC50	Compound
> 4.5 µg/mL	Fc1cccc(Nc2ncnc(-c3cccs3)n2)c1
> 4.5 µg/mL	CN(c1cccc(Cl)c1)c1ncnc(Cl)n1
> 4.5 µg/mL	NC(=O)c1cccc(Nc2ncnc(-c3cccs3)n2)c1
< 0.4 µg/mL	COc1cc(Nc2ncnc(Nc3ccc(C)cc3)n2)cc(OC)c1OC
> 4.5 µg/mL	CN(c1cccc(Cl)c1)c1ncnc(N[C@@H]2CCN(Cc3ccccc3)C2)n1
> 4.5 µg/mL	COc1ccc(Nc2ncnc(-n3c(N)nc4ccccc43)n2)cc1OCCN1CCOCC1
> 4.5 µg/mL	Nc1ncnc(Nc2cc(Cl)ccc2O)n1
> 4.5 µg/mL	COc1cc(Nc2ncnc(-n3c(NCC(N)=O)nc4ccccc43)n2)cc(OC)c1OC
> 4.5 µg/mL	NC(=O)c1ccc(Nc2ncnc(-c3cccs3)n2)cc1
< 0.4 µg/mL	COc1cc(Nc2ncnc(N3CCCc4ccccc43)n2)cc(OC)c1OC
> 4.5 µg/mL	COc1cc(Nc2ncnc(-c3cccnc3Nc3ccc(Oc4ccccc4)cc3)n2)cc(OC)c1OC
> 4.5 µg/mL	COc1cc(Nc2ncnc(-c3cccnc3NCc3ccccc3F)n2)cc(OC)c1OC
< 0.4 µg/mL	Fc1ccc(Nc2ncnc(Nc3ccc4[nH]ncc4c3)n2)cc1Cl
> 4.5 µg/mL	COc1cc(CNc2ncnc(Nc3cc(-c4ccco4)n[nH]3)n2)cc(OC)c1OC
> 4.5 µg/mL	COC(=O)c1ccc(-c2cc(Nc3ncnc(NCCNC(C)=O)n3)[nH]n2)cc1
> 4.5 µg/mL	COc1cc(Nc2ncnc(-c3ccc(NCc4ccccc4)nc3)n2)cc(OC)c1OC
0.4 to 2.4 µg/mL (≈ 0.793 to 4.76 µM)	O=c1[nH]c2ccccc2n1-c1ncnc(Nc2ccc(NS(=O)(=O)c3ccc([N+](=O)[O-])cc3)cc2)n1
> 4.5 µg/mL	COc1cc(Nc2ncnc(-c3cccs3)n2)cc(OC)c1OC
< 0.4 µg/mL	COc1cc(Nc2ncnc(Nc3ccccc3F)n2)cc(OC)c1OC
3.5 to 4.5 µg/mL (≈ 8.15 to 10.5 µM)	COc1cc(Nc2ncnc(Nc3ccc(-c4ccccc4)cc3)n2)cc(OC)c1OC
> 4.5 µg/mL	COc1cc(Nc2ncnc(-c3cccnc3Nc3cccc(C#N)c3)n2)cc(OC)c1OC
0.4 to 2.4 µg/mL (≈ 1.08 to 6.5 µM)	COc1cc(Nc2ncnc(Nc3ccc(O)cc3)n2)cc(OC)c1OC

IC50	Compound
0.4 to 2.4 µg/mL (≈ 1.02 to 6.1 µM)	COc1cc(Nc2ncnc(N3c4ccccc4CC3C)n2)cc(OC)c1OC (stereo not given)
0.4 to 2.4 µg/mL (≈ 0.923 to 5.54 µM)	COc1cc(Nc2ncnc(Nc3cc(-c4ccc(C)cc4)n[nH]3)n2)cc(OC)c1OC
> 4.5 µg/mL	OCCCNc1ncnc(-c2ccccc2)n1
> 4.5 µg/mL	COc1ccc(Nc2ncnc(N(C)c3ccc(C(=O)O)cc3)n2)cc1OC
< 0.4 µg/mL	Cc1cccc(Nc2ncnc(Nc3ccc(O)cc3)n2)c1
0.4 to 2.4 µg/mL (≈ 1.08 to 6.46 µM)	COc1cc(Nc2ncnc(Nc3ccc(F)cc3)n2)cc(OC)c1OC
< 0.4 µg/mL	Cc1nccc(-c2cccc(Nc3ncnc(Nc4ccc5c(cnn5Cc5ccccc5)c4)n3)c2)n1
> 4.5 µg/mL	COc1cccc(CCNc2ncnc(Nc3ccc4c(cnn4Cc4ccccc4)c3)n2)c1OC
> 4.5 µg/mL	COc1cc(Nc2ncnc(Nc3cccc4cccnc34)n2)cc(OC)c1OC
2.4 to 3.5 µg/mL (≈ 6.13 to 8.94 µM)	CCOc1ccc(Nc2ncnc(-n3c(N)nc4ccccc43)n2)cc1OCC
> 4.5 µg/mL	NC(=O)c1cccc(Nc2ncnc(-n3c(=O)[nH]c4ccccc43)n2)c1
0.4 to 2.4 µg/mL (≈ 0.982 to 5.89 µM)	COc1cc(Nc2ncnc(N[C@@H]3CCCc4ccccc43)n2)cc(OC)c1OC
> 4.5 µg/mL	COc1cc(Nc2ncnc(Nc3[nH]ncc3-c3ccccc3)n2)cc(OC)c1OC
< 0.4 µg/mL	O=C(O)/C=C/c1ccc(Nc2ncnc(Nc3cc(-c4ccco4)[nH]n3)n2)cc1
> 4.5 µg/mL	OCc1ccc(Nc2ncnc(-c3ccccc3)n2)cc1
< 0.4 µg/mL	COc1cc(Nc2ncnc(Nc3ccc(Br)cc3F)n2)cc(OC)c1OC
0.4 to 2.4 µg/mL (≈ 0.916 to 5.5 µM)	COc1cc(Nc2ncnc(Nc3ccc(N4CCCCC4)cc3)n2)cc(OC)c1OC
> 4.5 µg/mL	NC(=O)c1cccc(Nc2ncnc(-n3c(N)nc4ccccc43)n2)c1
0.4 to 2.4 µg/mL (≈ 0.791 to 4.75 µM)	COc1ccc(CNc2nc3ccccc3n2-c2ncnc(Nc3cccc(Cc4nnn[nH]4)c3)n2)cc1
> 4.5 µg/mL	CCOc1cccc(Nc2ncnc(Nc3cc(-c4ccc(C(=O)OC)cc4)n[nH]3)n2)c1
0.4 to 2.4 µg/mL (≈ 1.22 to 7.31 µM)	C#Cc1cccc(Nc2ncnc(-n3c(=O)[nH]c4ccccc43)n2)c1
3.5 to 4.5 µg/mL (≈ 8.07 to 10.4 µM)	COc1cc(Nc2ncnc(Nc3cc(-c4ccccc4)nn3C)n2)cc(OC)c1OC

IC50	Compound
< 0.4 µg/mL	COc1cc(Nc2ncnc(Nc3cccc4ccccc34)n2)cc(OC)c1OCCN1CCOCC1
< 0.4 µg/mL	COc1cc(Nc2ncnc(N(C)c3ccc(Cl)cc3)n2)cc(OC)c1OC
> 4.5 µg/mL	COc1cc(Nc2ncnc(-n3c(=O)sc4ccccc43)n2)cc(OC)c1OC
> 4.5 µg/mL	c1ccc(CNc2ncccc2-c2ncnc(Nc3ccc(N4CCOCC4)cc3)n2)cc1
> 4.5 µg/mL	COc1cc(Nc2ncnc(-n3c(N[C@H](C)c4ccccc4)nc4ccccc43)n2)cc(OC)c1OC
< 0.4 µg/mL	CN(c1ccc2c(cnn2Cc2ccccc2)c1)c1ncnc(Nc2cccc(Br)c2)n1
3.5 to 4.5 µg/mL (≈ 9.01 to 11.6 µM)	Nc1nc2ccccc2n1-c1ncnc(Nc2ccc(N3CCOCC3)cc2)n1
> 4.5 µg/mL	COc1cc(Nc2ncnc(N)n2)cc(OC)c1OC
2.4 to 3.5 µg/mL (≈ 7.84 to 11.4 µM)	O=c1[nH]c2ccccc2n1-c1ncnc(Nc2ccncn2)n1
< 0.4 µg/mL	COc1cc(Nc2ncnc(Nc3cccc(F)c3)n2)cc(OC)c1OC
> 4.5 µg/mL	Nc1ncnc(Nc2cccc(Cl)c2)n1
2.4 to 3.5 µg/mL (≈ 6.92 to 10.1 µM)	CN(c1cccc(Cl)c1)c1ncnc(NCCN2CCCCC2)n1
2.4 to 3.5 µg/mL (≈ 4.92 to 7.18 µM)	COc1cc(Nc2ncnc(-n3c(Nc4cccc(F)c4)nc4ccccc43)n2)cc(OC)c1OC
> 4.5 µg/mL	COc1cc(Nc2ncnc(-n3c(NCc4ccccn4)nc4ccccc43)n2)cc(OC)c1OCCN1CCOCC1
> 4.5 µg/mL	CCN(CC)CCCNc1ccc(-c2ncnc(Nc3cc(OC)c(OC)c(OC)c3)n2)cn1
> 4.5 µg/mL	COc1cc(Nc2ncnc(-n3ncc4ccccc43)n2)cc(OC)c1OC
> 4.5 µg/mL	COC(=O)c1sccc1Nc1ncnc(N2CCCc3cc(C)ccc32)n1
> 4.5 µg/mL	O=c1[nH]c2ccccc2n1-c1ncnc(Nc2ccc3ccccc3c2)n1
> 4.5 µg/mL	COc1cc(Nc2ncnc(-n3c(N)nc4ccccc43)n2)cc(OC)c1OC
> 4.5 µg/mL	COc1cc(Nc2ncnc(Nc3ccc(N4CCOCC4)cc3)n2)cc(OC)c1OC
3.5 to 4.5 µg/mL (≈ 10.4 to 13.4 µM)	CC(C)Nc1ncccc1-c1ncnc(Nc2cccc(CO)c2)n1
> 4.5 µg/mL	COc1cc(Nc2ncnc(-c3ccc(F)cc3)n2)cc(OC)c1OC

IC50	Compound
0.4 to 2.4 µg/mL (≈ 0.782 to 4.69 µM)	CCC(Nc1nc2ccccc2n1-c1ncnc(Nc2cc(OC)c(OC)c(OC)c2)n1)c1ccccc1 (stereo not given)
> 4.5 µg/mL	COCCOc1ccc(Nc2ncnc(-n3c(N)nc4ccccc43)n2)cc1OCCOC
2.4 to 3.5 µg/mL (≈ 4.96 to 7.24 µM)	COc1cc(Nc2ncnc(N(Cc3ccccc3)c3nc4ccccc4[nH]3)n2)cc(OC)c1OC
< 0.4 µg/mL	COc1cc(Nc2ncnc(N(C)c3cccc(Cl)c3)n2)cc(OC)c1OC
0.4 to 2.4 µg/mL (≈ 1.09 to 6.57 µM)	COc1ccc(Nc2ncnc(N(C)[C@H](C)c3ccccc3)n2)cc1OC
> 4.5 µg/mL	CNc1nc2ccccc2n1-c1ncnc(Nc2cc(OC)c(OC)c(OC)c2)n1
> 4.5 µg/mL	COc1cc(Nc2ncnc(-n3c(NC(CO)c4ccccc4)nc4ccccc43)n2)cc(OC)c1OC (stereo not given)
< 0.4 µg/mL	COc1ccc(N(C)c2ncnc(Nc3ccc(OC)c(OC)c3)n2)cc1
> 4.5 µg/mL	COc1cc(Nc2ncnc(-c3cccnc3Nc3cccc(C(C)=O)c3)n2)cc(OC)c1OC
> 4.5 µg/mL	Nc1nc2ccccc2n1-c1ncnc(Nc2ccccn2)n1
> 4.5 µg/mL	FC(F)(F)c1ccc(Cl)c(Nc2ncnc(-n3cccc3)n2)c1
0.4 to 2.4 µg/mL (≈ 1.08 to 6.45 µM)	COc1ccc(Nc2ncnc(NCc3cccc(Cl)c3)n2)cc1OC
0.4 to 2.4 µg/mL (≈ 1.29 to 7.73 µM)	c1coc(-c2cc(Nc3ncnc(Nc4nc[nH]n4)n3)n[nH]2)c1
> 4.5 µg/mL and 2.4 to 3.5 µg/mL	COc1cc(Nc2ncnc(-n3c(NCc4ccc(C)cc4C)nc4ccccc43)n2)cc(OC)c1OC
> 4.5 µg/mL	COc1cc(Nc2ncnc(-n3cc(C)c4ccccc43)n2)cc(OC)c1OC
3.5 to 4.5 µg/mL (≈ 6.22 to 8 µM)	COc1cc(Nc2ncnc(-n3c(NCc4cccc(Br)c4)nc4ccccc43)n2)cc(OC)c1OC
< 0.4 µg/mL	COCCOc1ccc(Nc2ncnc(Nc3ccc(C)c(O)c3)n2)cc1OC
> 4.5 µg/mL	COc1cc(Nc2ncnc(N3CCN(C)CC3)n2)cc(OC)c1OC
> 4.5 µg/mL	c1csc(-c2ncnc(Nc3ccc4c(c3)OCO4)n2)c1
< 0.4 µg/mL	COc1cc(Nc2ncnc(Nc3ccc(F)c(Cl)c3)n2)cc(OC)c1OC
0.4 to 2.4 µg/mL (≈ 1.1 to 6.62 µM)	COc1cc(Nc2ncnc(-n3ccnc3Cl)n2)cc(OC)c1OC
> 4.5 µg/mL	COc1cc(Nc2ncnc(-n3c(NCCO)nc4ccccc43)n2)cc(OC)c1OC

IC50	Compound
< 0.4 µg/mL	COc1ccc(Nc2ncnc(Nc3ccc4[nH]ccc4c3)n2)cc1OC
> 4.5 µg/mL	c1csc(-c2ncnc(Nc3ccncc3)n2)c1
< 0.4 µg/mL	COc1cc(Nc2ncnc(NCc3ccccc3)n2)cc(OC)c1OC
> 4.5 µg/mL	COc1cc(Nc2ncnc(-c3cccnc3N)n2)cc(OC)c1OC
0.4 to 2.4 µg/mL (≈ 0.925 to 5.55 µM)	COc1cc(Nc2ncnc(Nc3ccc(Br)cc3)n2)cc(OC)c1OC
> 4.5 µg/mL	COc1cc(Nc2ncnc(N3CCOCC3)n2)cc(OC)c1OC
0.4 to 2.4 µg/mL (≈ 0.991 to 5.95 µM)	c1coc(-c2cc(Nc3ncnc(Nc4ccc(-c5csnn5)cc4)n3)n[nH]2)c1
3.5 to 4.5 µg/mL (≈ 9.37 to 12 µM)	CCCN(CC1CC1)c1ncnc(Nc2cc(OC)c(OC)c(OC)c2)n1
> 4.5 µg/mL	COc1cc(Nc2ncnc(-n3c(Nc4ccc(F)cc4)nc4ccccc43)n2)cc(OC)c1OC
> 4.5 µg/mL	COc1cc(Nc2ncnc(-n3cc(CCO)c4ccccc43)n2)cc(OC)c1OC
0.4 to 2.4 µg/mL (≈ 1.11 to 6.66 µM)	CN(c1cccc(Cl)c1)c1ncnc(N(C)c2cccc(Cl)c2)n1
> 4.5 µg/mL	COc1cc(Nc2ncnc(-c3cccnc3Nc3ccc(C(C)=O)cc3)n2)cc(OC)c1OC
> 4.5 µg/mL	COc1cc(Nc2ncnc(-c3cccnc3NCc3ccccc3)n2)cc(OC)c1OC
> 4.5 µg/mL	COc1cc(Nc2ncnc(-c3cccnc3Nc3cccc(C(F)(F)F)c3)n2)cc(OC)c1OC
> 4.5 µg/mL	COc1cc(Nc2ncnc(-n3c(NCc4ccc(C)cc4)nc4ccccc43)n2)cc(OC)c1OC
> 4.5 µg/mL	COc1cc(Nc2ncnc(-c3cccnc3NC(C)c3ccccc3)n2)cc(OC)c1OC (stereo not given)
> 4.5 µg/mL	COc1cc(Nc2ncnc(-c3ccccc3)n2)cc(OC)c1
< 0.4 µg/mL	COc1ccc(Nc2ncnc(N(C)c3ccccc3Cl)n2)cc1OC
> 4.5 µg/mL	CC(C)(C)OC(=O)NCCCNc1ncnc(-c2ccccc2)n1
> 4.5 µg/mL	COc1cc(Nc2ncnc(N3CCc4cc([N+](=O)[O-])ccc43)n2)cc(OC)c1OC
0.4 to 2.4 µg/mL (≈ 0.796 to 4.78 µM)	COc1cc(Nc2ncnc(Nc3ccc(OCC(=O)Nc4ccccc4)cc3)n2)cc(OC)c1OC

Compound	IC50
COc1ccc(Nc2ncnc(N(C)C3CCN(C)CC3)n2)cc1OC	> 4.5 µg/mL
